From patent US20160220524A1, “COMPOSITIONS OF SMALL MOLECULE THERAPEUTICS” (NEXMED HOLDINGS, INC., priority 2015, published 2016)
Structures can show the parent of a compound that is named as a salt.

What was measured:
[1] = Protocol: The compounds from BCS Class 2, 3 and 4 were each formulated at 5 mg/ml in a liquid carrier of either an aqueous solution of polyethylene glycol 400 (20% PEG 400), or an aqueous solution of DDAIP-HCL (20%). […] Cohorts of three animals per group were placed in the study. On day 1, animals from each group were dosed at 30 mg/kg (6 ml/kg) by oral gavage (PO). Animals were fed at the time of dosing. Serial blood samples were collected at pre-dose, and after post-dose intervals of 30 minutes, 1 hour, 2 hours and 4 hours. The blood samples were collected into lithium heparin-coated tubes. At each time point, 0.15 ml of blood was collected via left jugular vein cannulae and processed for collection of plasma by centrifuging at approximately 2,000 rpm for approximately 10 minutes. The cellular fraction of the blood was discarded. Collection times and volume of plasma samples were recorded and tabulated. Plasma samples were transferred into clean tubes and snap frozen onto dry ice. Samples were stored at −80° C. until ready for bio-analysis by LC/MS/MS. The drug concentration was measured from supernatant after centrifugation of the dosing solution
[2] = water; cited from earlier work
P-glycoprotein (P-gp) = P-glycoprotein (P-gp) (Homo sapiens, UniProt P08183); experiment: Inhibition of P-glycoprotein; type: in vitro ADME; conditions: up to 10 mM
P-glycoprotein (P-gp), sequence (P08183 whole entry): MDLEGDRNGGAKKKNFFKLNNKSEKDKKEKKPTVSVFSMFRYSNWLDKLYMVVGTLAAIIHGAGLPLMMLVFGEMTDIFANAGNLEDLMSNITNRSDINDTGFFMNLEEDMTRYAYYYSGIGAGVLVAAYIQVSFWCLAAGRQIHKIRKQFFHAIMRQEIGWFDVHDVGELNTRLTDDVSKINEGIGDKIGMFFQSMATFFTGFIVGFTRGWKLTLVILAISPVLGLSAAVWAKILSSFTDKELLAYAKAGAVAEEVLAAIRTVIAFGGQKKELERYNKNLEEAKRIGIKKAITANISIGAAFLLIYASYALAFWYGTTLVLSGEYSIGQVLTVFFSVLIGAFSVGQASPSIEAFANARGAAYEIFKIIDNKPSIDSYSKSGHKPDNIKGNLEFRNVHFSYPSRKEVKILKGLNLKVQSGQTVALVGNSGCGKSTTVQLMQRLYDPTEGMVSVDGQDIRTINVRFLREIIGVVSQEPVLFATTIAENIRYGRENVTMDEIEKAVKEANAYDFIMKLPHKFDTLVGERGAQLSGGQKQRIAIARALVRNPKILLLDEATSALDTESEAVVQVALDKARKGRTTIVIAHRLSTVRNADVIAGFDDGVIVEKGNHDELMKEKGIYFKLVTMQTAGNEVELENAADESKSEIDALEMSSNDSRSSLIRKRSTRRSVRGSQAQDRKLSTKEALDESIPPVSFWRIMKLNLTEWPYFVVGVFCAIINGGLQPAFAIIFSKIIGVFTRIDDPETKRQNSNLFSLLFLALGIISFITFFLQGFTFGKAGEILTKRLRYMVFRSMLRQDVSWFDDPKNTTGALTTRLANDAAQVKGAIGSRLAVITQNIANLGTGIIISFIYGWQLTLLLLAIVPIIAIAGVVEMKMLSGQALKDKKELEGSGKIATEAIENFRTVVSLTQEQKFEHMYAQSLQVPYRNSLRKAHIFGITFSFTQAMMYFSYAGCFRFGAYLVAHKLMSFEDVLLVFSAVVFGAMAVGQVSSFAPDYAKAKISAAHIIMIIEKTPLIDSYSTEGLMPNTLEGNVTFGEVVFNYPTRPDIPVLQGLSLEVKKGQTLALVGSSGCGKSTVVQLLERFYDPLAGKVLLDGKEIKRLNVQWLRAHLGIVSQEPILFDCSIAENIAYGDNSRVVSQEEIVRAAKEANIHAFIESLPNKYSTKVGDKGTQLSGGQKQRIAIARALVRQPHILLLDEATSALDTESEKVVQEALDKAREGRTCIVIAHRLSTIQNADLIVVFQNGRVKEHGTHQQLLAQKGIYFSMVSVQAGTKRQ

| Compound | form of the 5 mg/ml formulation (suspension or solution) [1] | Sol. over PEG (solubility improvement fold over PEG 400) [1] [fold] | inhibition of P-glycoprotein (P-gp) (P-glycoprotein (P-gp)) | Sol. H2O (reported solubility from the literature) [2] [µg/mL] |
| --- | --- | --- | --- | --- |
| N[C@H]1C(O)O[C@H](CO)[C@@H](O)[C@@H]1O (stereo partly drawn) [Glucosamine, glucosamine] | – | – | – | 551000 |
| CCCCCCCCCCCCOC(=O)C(C)N(C)C (stereo not drawn) [DDAIP-HCL, dodecyl 2-(N,N-dimethylamino) propionate] | – | – | no inhibition | – |
| NS(=O)(=O)c1cc2c(cc1Cl)N=CNS2(=O)=O [Chlorothiazide, chlorothiazide] | – | >363 | – | 300 |

The next lines start with results.

| form of the 5 mg/ml formulation (suspension or solution) [1] | Sol. over PEG (solubility improvement fold over PEG 400) [1] [fold] | inhibition of P-glycoprotein (P-gp) (P-glycoprotein (P-gp)) | Compound | Sol. H2O (reported solubility from the literature) [2] [µg/mL] |
| --- | --- | --- | --- | --- |
| suspensions | – | – | O=C(CCCN1CCC(O)(c2ccc(Cl)cc2)CC1)c1ccc(F)cc1 [Haloperidol, haloperidol] | 1 |
| suspensions | >446 | – | O=C(O)c1cc(/N=N/c2ccc(S(=O)(=O)Nc3ccccn3)cc2)ccc1O [Sulfasalazine, sulfasalazine] | 10 |
